Values belong to the molecule of their own block, whether it stands above or below them. Starred links: 1 amine or outer side, 2 acyl side, 3 side chain; linkers in the order of their positions; H or OH if unused. Non-standard residues stand in square brackets, D forms with d. Residues, ends and D or L forms follow the SMILES beside them. *: point of attachment. Tyr(Me) = O-methyl-tyrosine, COc1ccc(C[C@H](N[*:1])C(=O)[*:2])cc1; Phe(F5) = N[C@@H](Cc1c(F)c(F)c(F)c(F)c1F)C(=O)O; hArg = N=C(N)NCCCC[C@H](N)C(=O)O; 12Ado = NCCCCCCCCCCCC(=O)O; Nle = CCCC[C@H](N)C(=O)O; Orn = NCCC[C@H](N)C(=O)O; Abu = CC[C@H](N)C(=O)O; PhAc = O=C(Cc1ccccc1)*
Key:
KG-1 cells = assay: Cellular uptake of fluorescently labeled MIA-602; details: 2.5 μM Alexa Fluor 555 labelled peptide, 30 minutes
Protocol: For the detection of cellular uptake, MIA-602 was conjugated to Alexa Fluor 555 according to the manufacturer's instructions (Alexa Fluor 555 NHS ester, tris(triethylammonium salt, Life Technologies, Carlsbad, Calif.). Cells were incubated with 2.5 μM fluorescently labelled peptide or unconjugated fluorophore for 30 minutes (1×10^6 cells/tube). At the end of incubation, cells were washed 3 times in PBS, fixed in 4% paraformaldehyde, mounted, and imaged as described above. ImageJ software (NIH, Bethesda, Md.) was used to recolor the images, for the purpose of enhancing visual perception of cellular uptake.

pituitary = details: biological activity on the pituitary; cited from earlier work
[1] = nude mice, 10 μg B.i.d. s.c.
From the text: Eight-weeks-old female athymic nude mice (Hsd: Athymic Nude-Foxn1^nu), obtained from Harlan Laboratories, were housed in sterile cages in a temperature-controlled room with a 12-hours light\12-hours dark schedule. Mice were fed autoclaved chow and water ad libitum. Human myelogenous leukemia cells KG-1, KG-1a, K-562 and THP-1 were used in log phase of growth. Xenografts were initiated by subcutaneous (s.c.) injection of 1×10^7 cells into the right flank of nude mice. For each cell line, once tumor reached an appropriate size (approx. 40 mm3), mice were randomly divided into two groups of 15 animals each, which received s.c. injections twice a day into the left flank of, phosphate-buffered saline (PBS) ([…] containing 0.1% DMSO, or MIA-602 at a dose of 10 μg. […] At the end of the experiment, mice were sacrificed under carbon dioxide followed by cervical dislocation. All animal procedures were performed in compliance with the Guide for the Care and Use of Laboratory Animals published by the NIH, and approved by the Animal Care and Use Committee of the University of Miami.

[2] = biological target: GHRH splice variant 1 receptor (human)
[3] = biological target: GHRH splice variant 1 receptor (human); remark: listed apart in the source
[4] = biological target: GHRH splice variant 1 receptor (human); remark: listed apart in the source
[5] = 30 days, treated animals vs those bearing no tumors

Molecule: fluorescently labeled MIA-602: MIA-602 conjugated to Alexa Fluor 555 for the detection of cellular uptake ({PhAc-12Ado}-Y[dR]DAI[Phe(F5)]TA[hArg][Tyr(Me)]H[Orn]VL[Abu]QLSAH[Orn]LLQDI[Nle][dR][hArg]-NH2; also: Alexa Fluor 555 conjugated via NHS ester, site not given here)
cellular uptake (KG-1 cells): not observed

Molecule: Tyr-Ala-Asp-Ala-Ile^5-Phe-Thr-Asn-Ser-Tyr^10-Arg-Lys-Val-Leu-Gly^15-Gln-Leu-Ser-Ala-Arg^20-Lys-Leu-Leu-Gln-Asp^25-Ile-Met-Ser-Arg^29-NH2 [GHRH(1-29)]
potency retained relative to native GHRH (pituitary): ≥ 50%

Molecule: CCCC[C@H](NC(=O)[C@@H](NC(=O)[C@H](CC(=O)O)NC(=O)[C@H](CCC(N)=O)NC(=O)[C@H](CC(C)C)NC(=O)[C@H](CC(C)C)NC(=O)[C@H](CCCN)NC(=O)[C@H](Cc1c[nH]cn1)NC(=O)[C@H](C)NC(=O)[C@H](CO)NC(=O)[C@H](CC(C)C)NC(=O)[C@H](CCC(N)=O)NC(=O)[C@H](CC)NC(=O)[C@H](CC(C)C)NC(=O)[C@@H](NC(=O)[C@H](CCCN)NC(=O)[C@H](Cc1c[nH]cn1)NC(=O)[C@H](Cc1ccc(OC)cc1)NC(=O)[C@H](CCCCNC(=N)N)NC(=O)[C@H](C)NC(=O)[C@@H](NC(=O)[C@H](Cc1c(F)c(F)c(F)c(F)c1F)NC(=O)[C@@H](NC(=O)[C@H](C)NC(=O)[C@H](CC(=O)O)NC(=O)[C@@H](CCCNC(=N)N)NC(=O)[C@H](Cc1ccc(O)cc1)NC(=O)CCCCCCCCCCCNC(=O)Cc1ccccc1)[C@@H](C)CC)[C@@H](C)O)C(C)C)[C@@H](C)CC)C(=O)N[C@H](CCCNC(=N)N)C(=O)N[C@@H](CCCCNC(=N)N)C(N)=O [MIA-602, [PhAc-Ada^0-Tyr^1, D-Arg^2, Fpa5^6, Ala^8, Har^9, Tyr(Me)^10, His^11, Orn^12, Abu^15, His^20, Orn^21, Nle^27, D-Arg^28, Har^29]hGH-RH(1-29)NH2] ({PhAc-12Ado}-Y[dR]DAI[Phe(F5)]TA[hArg]Y(Me)H[Orn]VL[Abu]QLSAH[Orn]LLQDI[Nle][dR][hArg]-NH2)
body weights [1, 5]: No significant differences
weights of various organs (liver, spleen, and kidneys) [1, 5]: No significant differences
macroscopic observation of organs ([1]; after treatment): no differences

decrease of phosphorylation of Akt (Western blot, 8 h incubation with MIA-602) [3]: 85%
reduction in cell proliferation (cell count, 5 µM MIA-602, 24 and 48 hours) [4]: 80%
Molecule: {PhAc-12Ado}-Y[dR]DAI[Phe(F5)]TA[hArg][Tyr(Me)]H[Orn]VL[Abu]QLSAH[Orn]LLQDI[Nle][dR][hArg]-NH2
fold-change in expression of cell death-related genes (qPCR array, 24 h MIA-602) [2]: 28.9 fold
